Assay results from EP2992880A1, “Use of heme oxygenase 1 inducers and cannabinoid 2 receptor or delta-opioid receptor agonists in inflammatory pain” (Fundació Institut de Recerca de l'Hospital de la Santa Creu …, priority 2014, dated 2016).

What was measured:
HO-1 = test: Western blot of HO-1 protein in dorsal root ganglia of CFA-injected mice; format: in vivo; conditions: CoPP treatment of CFA-injected mice; P < 0.001 (Fig. 6)
Description: Animals were sacrificed at 0 days (naive) and after CFA-injection by cervical dislocation. Tissues from the ipsilateral section of the dorsal root ganglia (L3 to L5) were removed immediately after killing, frozen in liquid nitrogen, and stored at -80°C until assay. Samples from five animals were pooled into one experimental sample to obtain enough protein levels for performing Western blot analysis. The HO-1, DOR and CB2R protein levels were analyzed by Western blot. […]
The proteins were electrophoretically transferred onto PVDF membrane for 120 min, blocked with PBS + 5% nonfat dry milk, and subsequently incubated overnight at 4°C with polyclonal rabbit anti-HO-1 (1:300, Stressgen, Ann Arbor, MI), anti-DOR (1:2500, Chemicon-Millipore) or anti-CB2R (1:500, Abcam, Cambridge, United Kingdom). The proteins were detected by a horseradish peroxidase-conjugated anti-rabbit secondary antibody (GE Healthcare, Little Chalfont, Buckinghamshire, United Kingdom) and visualized with chemiluminescence reagents (ECL kit; GE Healthcare) and by exposure onto hyperfilm (GE Healthcare). The intensity of blots was quantified by densitometry. […]
Finally, in another set of experiments we evaluated the effects of CoPP on the expression of HO-1, DOR and CB2R in the ipsilateral site of the dorsal root ganglia from CFA-injected mice, by using Western blot assay. […]

CFA-injected mice = test: plantar test (thermal hyperalgesia) in CFA-induced chronic inflammatory pain; format: in vivo, male C57BL/6 mice
Description: The experiments were performed in male C57BL/6 mice acquired from Harlan Laboratories (Barcelona, Spain). All mice weighing 21 to 25 g were housed under 12-h/12-h light/ dark conditions in a room with controlled temperature (22° C) and humidity (66%). Animals had free access to food and water and were used after a minimum of 7 days acclimatization to the housing conditions. All experiments were performed according with the Guide for the Care and Use of Laboratory Animals as adopted and promulgated by the U.S. National Institutes of Health and approved by the local Committee of Animal Use and Care of the Autonomous University of Barcelona. All efforts were made to minimize animal suffering and to reduce the number of animals used.
Chronic inflammatory pain was induced by the subplantar injection of 30 µl of CFA (Sigma) into the right hind paw under brief anesthetic conditions with isoflurane according to previous works (Leánez et al., Eur J Pharmacol, 2009, 602:41-49; Hervera et al., Naunyn Schmiedebergs Arch Pharmacol, 2009, 380:345-352). All experiments were performed at 10 days after CFA injection. At this time point, all of these animals developed a local inflammatory reaction, allodynia to mechanical stimuli and hyperalgesia to noxious thermal stimuli, as previously reported (Negrete et al., PLoS One, 2011, 6:e26688). The development of mechanical allodynia and thermal hyperalgesia was evaluated by using the von Frey filaments and plantar tests, respectively. All animals were tested in each paradigm before and at 10 days after CFA-injection.
Thermal hyperalgesia was assessed as previously reported by Hargreaves et al. (Pain, 1988, 32:77-88). Paw withdrawal latency in response to radiant heat was measured using the plantar test apparatus (Ugo Basile, Varese, Italy). Briefly, mice were placed in methacrylate cylinders (20 cm high x 9 cm diameter) positioned on a glass surface. The heat source was positioned under the plantar surface of the hind paw and activated with a light beam intensity, chosen in preliminary studies to give baseline latencies from 8 to 10 s in control mice. A cut-off time of 12 s was used to prevent tissue damage in absence of response. The mean paw withdrawal latencies from the ipsilateral and contralateral hind paws were determined from the average of three separate trials, taken at 5 min intervals to prevent thermal sensitization and behavioral disturbances. Animals were habituated to the environment for 1 h before the experiment to become quiet and to allow testing. […]
In another set of experiments, we evaluated the mechanical antiallodynic and thermal antihyperalgesic effects produced by the subplantar administration of 290 µg of SnPP alone or combined with the subplantar administration of a high dose of DPDPE (150 µg) or JWH-015 (300 µg) in the contralateral and ipsilateral paw of CFA-injected animals (n = 6 animals per group).
The reversibility of the antinociceptive effects produced by the subplantar administration of DPDPE (150 µg) or JWH-015 (300 µg), as doses that produce the maximal antiallodynic and antihyperalgesic effects after peripheral inflammation, by their subplantar coadministration with specific (naltrindole; 50 µg; AM630; 60 µg) and an unspecific peripheral opioid antagonist (naloxone methiodide, NX-ME; 50 µg) or a cannabinoid 1 receptor (CB1R) antagonist (AM251; 150 µg) (Hervera et al., J Pharmacol Exp Ther, 2010, 334: 887-896; Hervera et al., Mol Pain, 2011, 7:25) was also evaluated (n = 6 animals per group). The doses of all tested opioid and cannabinoid receptor antagonists were selected according to our previous data in animals with chronic pain (Hervera et al., Naunyn Schmiedebergs Arch Pharmacol, 2009, 380:345-352; Hervera et al., Psychopharmacology, 2013, 228:463-477; Negrete et al., PLoS One, 2011, 6:e26688).
CoPP and SnPP were dissolved in DMSO (1 % solution in saline). JWH-015, AM630, AM251 were dissolved in DMSO (50 % solution in saline). […]

Substance: cobalt (III) protoporphyrin IX chloride [CoPP]
- dorsal root ganglia expression of HO-1 (HO-1): significantly increased
- effect of CoPP treatment on the thermal antihyperalgesic effects of DPDPE (CFA-injected mice; CoPP 10 mg/kg intraperitoneal, DPDPE 50 µg subplantar, P < 0.001 (Fig. 3B)): significantly increased
- effect of CoPP treatment on the antihyperalgesic effects of JWH-015 (CFA-injected mice; CoPP 10 mg/kg intraperitoneal, JWH-015 30 µg subplantar, P < 0.001 (Fig. 4B)): significantly enhanced
- thermal hyperalgesia induced by peripheral inflammation (CFA-injected mice; CoPP alone 10 mg/kg intraperitoneal, ipsilateral paw, P < 0.001 versus vehicle (Fig. 3B)): significantly attenuated
- Thermal hyperalgesia, Experimental results (%) (maximal possible effect) (CFA-injected mice; Table 5, ipsilateral paw, CoPP 10 mg/kg intraperitoneal, DPDPE 50 µg subplantar, vehicle 4.0): 26.8%
- Thermal hyperalgesia, Experimental results (%) (maximal possible effect) (CFA-injected mice; Table 6, ipsilateral paw, CoPP 10 mg/kg intraperitoneal, JWH-015 30 µg subplantar, vehicle 4.9): 22.3%
